System: KRAS patient-derived spheroids with HUVEC/MSC, viability
Experiment: Anticancer human tumor 941728-121-R-J1-PDC patient-derived lung adenocarcinoma cell line growth inhibition [KRAS2]
Conditions: for viability, T/C: stronger effect = lower value; for IC50: curve of first compound
Method in brief: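 Combination screen of spheroid viability in tumor-cell co-cultures with endothelial (HUVEC) and mesenchymal stem cell stroma. Each agent was tested in half-log dilutions, topping at clinical Cmax or at 10 microM without a known Cmax.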

[1] = second compound 0.1 µM, first compound 0.01 µM
[2] = second compound 0.1 µM, first compound 0.0316 µM
[3] = second compound 0.1 µM, first compound 0.1 µM
[4] = second compound 0.316 µM, first compound 0.01 µM
[5] = second compound 0.316 µM, first compound 0.0316 µM
[6] = second compound 0.316 µM, first compound 0.1 µM
[7] = second compound 1 µM, first compound 0.01 µM
[8] = second compound 1 µM, first compound 0.0316 µM
[9] = second compound 1 µM, first compound 0.1 µM
[10] = second compound 3.16 µM, first compound 0.01 µM
[11] = second compound 3.16 µM, first compound 0.0316 µM
[12] = second compound 3.16 µM, first compound 0.1 µM
[13] = second compound 10 µM, first compound 0.01 µM
[14] = second compound 10 µM, first compound 0.0316 µM
[15] = second compound 10 µM, first compound 0.1 µM
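Note: spheroids exposed to agents for seven days before readout.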

Row | Compound | IC50 (second compound 0.1 µM) [nM] | IC50 (second compound 0.316 µM) [nM] | IC50 (second compound 1 µM) [nM] | IC50 (second compound 3.16 µM) [nM] | IC50 (second compound 10 µM) [nM] | viability, T/C [1] [%] | viability, T/C [2] [%] | viability, T/C [3] [%] | viability, T/C [4] [%] | viability, T/C [5] [%] | viability, T/C [6] [%] | viability, T/C [7] [%] | viability, T/C [8] [%] | viability, T/C [9] [%] | viability, T/C [10] [%] | viability, T/C [11] [%] | viability, T/C [12] [%] | viability, T/C [13] [%] | viability, T/C [14] [%] | viability, T/C [15] [%] | also measured
1 | CC(=O)Nc1cccc(-n2c(=O)n(C3CC3)c(=O)c3c(Nc4ccc(I)cc4F)n(C)c(=O)c(C)c32)c1 |  |  |  |  |  |  |  |  |  |  |  |  |  |  |  |  |  |  |  |  | viability, T/C (compound 0.0001 µM): 84.8% [middle of 5 runs]; viability, T/C (compound 0.000316 µM): 63.7% [middle of 5 runs]; viability, T/C (compound 0.001 µM): 53.3% [middle of 5 runs]; viability, T/C (compound 0.00316 µM): 49.9% [middle of 4 runs]; viability, T/C (compound 0.01 µM): 47.2% [middle of 5 runs]; viability, T/C (compound 0.0316 µM): 42.3% [middle of 5 runs]
2 | CC1COCCN1c1cc(-c2ccnn2C)c2ccnc(-c3ccn[nH]3)c2n1 (stereo unspecified) + COc1cc2nc(C)nc(NC(C)c3cc(N)cc(C(F)(F)F)c3)c2cc1OC1CCOC1 | 25.8 | 30.7 | 14.5 | < 10 | < 10 | 56 | 49.5 | 39.9 | 58.2 | 49.5 | 36.8 | 53.6 | 42.7 | 32.9 | 36.3 | 32 | 25.4 | 17.4 | 21.6 | 21.9 | viability, T/C (second compound 0.1 µM, first compound 0.316 µM): 33.9%; viability, T/C (second compound 0.1 µM, first compound 1 µM): 26.8%; viability, T/C (second compound 0.1 µM, first compound 3.16 µM): 20.3%; viability, T/C (second compound 0.316 µM, first compound 0.316 µM): 27.2%; viability, T/C (second compound 0.316 µM, first compound 1 µM): 21.9%; viability, T/C (second compound 0.316 µM, first compound 3.16 µM): 23.6%; viability, T/C (second compound 1 µM, first compound 0.316 µM): 27.9%; viability, T/C (second compound 1 µM, first compound 1 µM): 22.5%; viability, T/C (second compound 1 µM, first compound 3.16 µM): 18.6%; viability, T/C (second compound 3.16 µM, first compound 0.316 µM): 18.2%; viability, T/C (second compound 3.16 µM, first compound 1 µM): 8.31%; viability, T/C (second compound 3.16 µM, first compound 3.16 µM): 15.9%; viability, T/C (second compound 10 µM, first compound 0.316 µM): 11.4%; viability, T/C (second compound 10 µM, first compound 1 µM): 9.32%; viability, T/C (second compound 10 µM, first compound 3.16 µM): 6.09%
3 | CC(C)n1nc(-c2ccc3oc(N)nc3c2)c2c(N)ncnc21 + CNCc1ccccc1-c1csc(C(C)Nc2nc(C)nc3cc(OC)c(OC)cc23)c1 | 0.668 | < 0.316 | < 0.316 | < 0.316 | < 0.316 | 34.3 | 34.5 | 31.4 | 23.1 | 24.1 | 16.6 | 13.6 | 11 | 7.65 | 0.11 | 0.08 | 0.13 | 0.67 | 0.67 | 0.72 | viability, T/C (second compound 0.1 µM, first compound 0.000316 µM): 49%; viability, T/C (second compound 0.1 µM, first compound 0.001 µM): 59.2%; viability, T/C (second compound 0.1 µM, first compound 0.00316 µM): 37.3%; viability, T/C (second compound 0.316 µM, first compound 0.000316 µM): 44.7%; viability, T/C (second compound 0.316 µM, first compound 0.001 µM): 45.2%; viability, T/C (second compound 0.316 µM, first compound 0.00316 µM): 35.9%; viability, T/C (second compound 1 µM, first compound 0.000316 µM): 34.8%; viability, T/C (second compound 1 µM, first compound 0.001 µM): 29.3%; viability, T/C (second compound 1 µM, first compound 0.00316 µM): 15.9%; viability, T/C (second compound 3.16 µM, first compound 0.000316 µM): 0.15%; viability, T/C (second compound 3.16 µM, first compound 0.001 µM): 0.16%; viability, T/C (second compound 3.16 µM, first compound 0.00316 µM): 0.1%; viability, T/C (second compound 10 µM, first compound 0.000316 µM): 0.58%; viability, T/C (second compound 10 µM, first compound 0.001 µM): 0.43%; viability, T/C (second compound 10 µM, first compound 0.00316 µM): 2.78%
